We go through 37 compounds from PubChem BioAssay AID1549 (Sanford-Burnham Center for Chemical Genomics, 2009).

The term Kd denotes the concentration at which binding is half-saturated.

Activity calls are given as the source filed them. The rule behind the calls is not given here.

This experiment deals with Influenza A virus M2 proton channel (A/TW/4845/1999 H1N1). Kind of experiment: NMR binding screen, influenza A virus M2 proton channel, Kd (AID 1549). Particulars: M2 protein.
As for `CC(=O)C1=C(O)C(=O)NC1c1ccccc1` (configuration not stated), the Kd was > 4 mM (inactive).

Take `OCc1c[nH]c2ccccc12`: the Kd was > 4 mM (inactive).

As for `C[C@H]1OC(O[C@H]2[C@@H](O)CC(O[C@H]3[C@@H](O)C[C@H](O[C@H]4CC[C@]5(C)C6CC[C@]7(C)[C@@H](C8=CC(=O)OC8)[C@@H](O)C[C@]7(O)[C@@H]6CC[C@@H]5C4)O[C@@H]3C)O[C@@H]2C)C[C@H](O)C1O` (some centres not stated), the Kd was > 4 mM (inactive).

`Cn1c(=O)n(-c2cccc(Cl)c2)c(=O)n1C`: the Kd was > 4 mM (inactive).

Regarding `C=C1CCC(C2CC(=O)OC2=O)C(=O)CCC2C1CC2(C)C` (configuration not stated), the Kd was > 4 mM (inactive).

Turning to `CN1CCN(C2CCSC2)CC1` (configuration not stated), the Kd was > 4 mM (inactive).

For the compound `Nc1nc(-c2cccnc2)nn1C(=O)Cc1ccccc1`, the Kd is > 4 mM (inactive).

On to `O=C(c1cc2ccccc2o1)N1CCCCCC1`, for which the Kd is > 4 mM (inactive).

As to `COC1=CC(=O)C=C(OC)C1=O`, the Kd is > 4 mM (inactive).

As for `c1nnc2c3c4c(sc3ncn12)CCCC4`, the Kd is > 4 mM (inactive).

Regarding `COC(=O)C[C@H]1C(C)(C)C(OC(C)=O)[C@]2(O)C=C3C(CC[C@]4(C)C3CC(=O)O[C@H]4c3ccoc3)C1(C)C2=O` (some centres not stated), the Kd is > 4 mM (inactive).

Take `O=C(NCc1ccco1)c1ccc(Br)s1`: the Kd is > 4 mM (inactive).

In the case of `COC(=O)c1cc2cc(N)ccc2s1`, the Kd was > 4 mM (inactive).

With `CC[C@@]1(O)C[C@H](O[C@H]2C[C@H](N(C)C)[C@H](O)[C@H](C)O2)c2c(cc3c(c2O)C(=O)c2c(O)cccc2C3=O)[C@H]1C(=O)OC`, the Kd was > 4 mM (inactive).

For `CCN(CC)C(=O)c1n[nH]c(=O)c2ccccc12`, the Kd is > 4 mM (inactive).

As for `S=C(c1ccc2c(c1)OCO2)N1CCCC1`, the Kd is > 4 mM (inactive).

As for `COc1cc(-c2coc3cc(OC)c(OC)c(OC)c3c2=O)cc(OC)c1OC`, the Kd is > 4 mM (inactive).

Turning to `CSc1nc(O)cc(=O)[nH]1`, the Kd was > 4 mM (inactive).

Take `CC(O)c1ccc(C(C)O)cc1` (configuration not stated): the Kd was > 4 mM (inactive).

As for `C[C@H]1[C@H]2CCC3C4CC=C5C[C@@H](N(C)C)CC[C@]5(C)C4CC[C@@]32CN1C` (some centres not stated), the Kd was > 4 mM (inactive).

For the compound `Cc1nnc(N2CCN(c3ccccc3)CC2)[nH]c1=O`, the Kd is > 4 mM (inactive).

On to `O=C1CC(NCc2ccco2)C(=O)NN1` (configuration not stated), for which the Kd was > 4 mM (inactive).

Take `Cc1noc(C)c1C(=O)Nc1cccnc1`: the Kd is > 4 mM (inactive).

Consider `CN1CCC=C(C(=O)O)C1`, for which the Kd was > 4 mM (inactive).

Turning to `Cc1ccc(O)c(NC(=O)c2ccco2)c1`, the Kd is > 4 mM (inactive).

Regarding `CN(C)CCNC(CC(=O)Nc1ccccc1)C(=O)O` (configuration not stated), the Kd is > 4 mM (inactive).

As to `Cc1ccc(Nc2nc(N)nc(CC#N)n2)cc1`, the Kd was > 4 mM (inactive).

For the compound `O=C1NC(=Nc2ccc(O)cc2)S/C1=C/c1ccco1`, the Kd was > 4 mM (inactive).

`Cc1cc(C(=O)Nn2cnnc2)cs1`: the Kd is > 4 mM (inactive).

In the case of `Nc1ncnc2nc(SCCN3CCCCC3)[nH]c12`, the Kd was > 4 mM (inactive).

In the case of `CCNC(CC(=O)Nc1cccc([N+](=O)[O-])c1)C(=O)O` (configuration not stated), the Kd was > 4 mM (inactive).

As to `COC[C@]12CN(C=O)C3[C@@H]4[C@H](OC)C1[C@]3(C1CC3(O)C(OC)C(O)C4(OC(C)=O)C1C3OC(=O)c1ccccc1)[C@@H](OC)C[C@H]2O` (some centres not stated), the Kd is > 4 mM (inactive).

As to `O=C(O[C@@H]1Cc2c(O)cc(O)cc2O[C@@H]1c1ccc(O)c(O)c1)c1cc(O)c(O)c(O)c1`, the Kd is > 4 mM (inactive).

`CC(C)(C)NC(=O)N1CCC(C(N)=O)CC1`: the Kd was > 4 mM (inactive).

Turning to `COc1cc(OC)c2c(OC)c(-c3ccc4c(c3)OCO4)c(=O)oc2c1`, the Kd was > 4 mM (inactive).

Consider `Cc1cc(C)n2nc(C(=O)NCc3ccco3)nc2n1`, for which the Kd is > 4 mM (inactive).

On to `CC(C)Nc1ncnc2c1nnn2C`, for which the Kd was > 4 mM (inactive).
